In patent US20240173377A1, “RETRO - INVERSO REGULATORY T CELL EPITOPES” (EpiVax, Inc., priority 2020, published 2024):
“Also recorded” adds a separate entry of the source.

Experiments:
[1] = target: Class II HLA alleles (HLA DRB1); assay: HLA binding assay (soluble MHC, competition with labeled control peptide); design: species or system human; conditions: retro-inverso peptide versus L-amino acid counterpart (SEQ ID NOS: 114 and 115); HLA DRB1 *0101, *0301, *0401, *0401, *0701, *1101, *1301 and *1501; FIG. 3
Experimental: HLA Binding Assay. Binding activity is analyzed at EpiVax (Providence, Rhode Island). The binding assay used (Steere A C et al., (2006), J Exp Med, 2003(4):961-71) yields an indirect measure of peptide-MHC affinity. Soluble HLA molecules are loaded onto a 96-well plate with the unlabeled experimental retro-inverso Tregitopes and labeled control peptide. Once the binding mixture reaches steady equilibrium (at 24 hours), the HLA-retro-inverso Tregitope complexes are captured on an ELISA plate coated with anti-human DR antibody and detected with a Europium-linked probe for the label (PerkinElmer, Waltham, MA). Time-resolved fluorescence measuring bound labeled control peptide is assessed by a SpectraMax® M5 unit (Spectramax, Radnor, PA). Binding of experimental retro-inverso Tregitopes is expressed as the percent inhibition of the labeled control peptide ([…]). The percent inhibition values for each experimental retro-inverso Tregitope (across a range of molar concentrations) is used to calculate the concentration at which it inhibits 50% of the labeled control […] specific binding, i.e. the retro-inverso Tregitope's IC50. […]

CD4+ T cells = assay: Tetanus Toxoid bystander assay, CD4+ T cell proliferation in PBMC (CFSE); assay type: cell-based, human; conditions: TT-treated PBMCs of four donors; versus L-amino acid counterparts (SEQ ID NOS: 114 and 115); FIGS. 7A-7B, 8A-8B
Excerpt: The purpose of this experiment is to establish the ability of the instantly-disclosed retro-inverso Tregitopes (e.g., any one or more of SEQ ID NO: 1-29 and 42-107 and/or fragments and variants thereof, and optionally 1 to 12 additional amino acids distributed in any ratio on the N-terminus and/or C-terminus of the polypeptide of SEQ ID NOS: 1-29 and 42-107 as disclosed herein, wherein each of the amino acids of SEQ ID NOS: 1-29 and 42-107 (and in aspects, the optional extensions thereof) except for glycine are in the D-amino acid configuration) of the instant disclosure to suppress the proliferation CD4+ Tcells, including antigen stimulated CD4+ effector memory T cells, which in aspects is by either direct (engagement and activation of TReg) or indirect (modulation of APC phenotype) means. […]

human DR molecules = conditions: cited from earlier work
[2] = tested on: PBMCs from lupus patients; conditions: randomly selected lupus patients; cited from earlier work

Sequence | IC50 values, binding to HLA DRB1 alleles [1] | ability to reduce CD4+ cell proliferation (CD4+ T cells) | binding to soluble HLA class II molecules (human DR molecules) | lupus patients whose PBMCs contain T cells that proliferate in response to the peptide [2]
KGYIFSHGTFHITLI [SEQ ID NO: 100] | scored comparably; also recorded: comparable affinity | comparable ability | – | –
DQHLVTLVSVVTYTSNYQEE [SEQ ID NO: 16] | scored comparably; also recorded: comparable affinity | comparable ability | – | –
RIHMVYSKRSGKPRGYAFIEY (listed as Homo sapiens) [peptide 131-151] | – | – | binds to a large panel of human DR molecules | 40%
